US9261498B2, “Biomarker for sensitivity to mTOR inhibitor therapy in kidney cancer” (The Regents of the University of California, priority 2005, dated 2016)
Entries after “also recorded” stand apart in the source; their conditions may differ.

Key:
GLUT-1, CA-IX and VEGF = experiment: Expression of HIF target genes GLUT-1, CA-IX and VEGF in VHL knockdown cells; assay type: cell-based, human; details: 1 and 10 nM CCI-779
Experimental: (a) SN12C-CSCG and SN12C-VHLshRNA cell were treated with vehicle, 1 nM or 10 nM of CCI-779 and lysed 24 hours later. Lysates were subjected to immunoblotting for HIF-1α, HIF-2α, GLUT-1, CA-IX, p-eIF4G, p-S6 Ribosomal protein. Equal protein loading was verified using anti-β-actin antibody. (b) HIF-1α expression was probed by immunoblotting in SN12C-MSCV-5′TOP-HIF-1α cDNA (left panel) and SN12C-MSCV-HIF-1α cDNA (tight panel) post 24 hours of vehicle, 1 nM or 10 nM of CCI-779.
(§1) Cells and xenograft tumors were lysed in ECB lysis buffer (see, e.g. Kondo et al., Cancer Cell 1, 237-46 (2002)) or high-detergent buffer (2% SDS), (see, e.g. Chen et al., Nat Med 10, 33-9 (2004)), respectively, supplemented with complete protease and phosphatase inhibitor cocktails (Calbiochem). […] Bound antibody was detected using enhanced chemiluminescence (ECL, Amersham). For VEGF ELISA quantification, cells were plated in 6 well plates (1×10^5 per well). […] Thirty-six hours later, VEGF ELISA (R&D Systems) was performed according to the manufacturer's instructions, using a Fisher Plate reader. […]
Cells and xenograft tumors were lysed in ECB lysis buffer or high-detergent buffer (2% SDS), respectively, supplemented with complete protease and phosphatase inhibitor cocktails (Calbiochem). […] Bound antibody was detected using enhanced chemiluminescence (ECL, Amersham). […]

[1] = system: HIF-1α, HIF-2α, GLUT-1, CA-IX; experiment: Immunoblot of HIF and target proteins in VHL knockdown cells expressing HIF-1α (P564A) / HIF-2α (P405A; P531A) mutants; assay type: cell-based, human; details: SN12C VHL knockdown cells with HIF mutants lacking 5'TOP, 24 hours
Experimental: FIGS. 4A-4C. Rescue of CCI-779 growth suppression by HIF-1-α and HIF-2-α prolyl hydcroxylase mutants. SN12C-CSCG-VHLshRNA cells stably infected with the prolyl hydroxylation defective cDNA mutants p-Babe-puro-HA-HIF-1α (P564A), HIF-2α (P405A; P531A) or backbone vector were treated with CCI-779 or vehicle and harvested 24 hours later. (a) Lysates were subjected to immunoblotting for HIF-1α, HIF-2α, GLUT-1, CA-IX, p-eIF4G, p-S6 and β-Actin as loading control. (b) SN12C-VHLshRNA, SN12C-VHLshRNA-HIF-1α mutant, SN12C-VHLshRNA-HIF-2α mutant cells (1×10^5) were cultured in 10% serum rich media, in the presence of vehicle, 1 or 10 nM of CCI-779 for 5 days. Cell growth was measured by cell counts (n=3). […]
as §1

## CO[C@H]1C[C@@H]2CC[C@@H](C)[C@@](O)(O2)C(=O)C(=O)N2CCCC[C@H]2C(=O)O[C@H]([C@H](C)C[C@@H]2CC[C@@H](OC(=O)C(C)(CO)CO)[C@H](OC)C2)CC(=O)[C@H](C)/C=C(\C)[C@@H](O)[C@@H](OC)C(=O)[C@H](C)C[C@H](C)/C=C/C=C/C=C/1C [CCI-779]
GLUT-1, CA-IX and VEGF
  expression of GLUT-1, CA-IX and VEGF: similarly reduced; also recorded: decrease in the expression
[1]
  levels of HIF mutants and downstream targets GLUT-1 and CA-IX: stably expressed in the presence or absence of CCI-779; also recorded: not affected
